Ten compounds from ChEMBL document CHEMBL4266050, “Metabolomics-Driven Discovery of Meroterpenoids from a Mussel-Derived Penicillium ubiquetum” (J Nat Prod, 2018) can be followed below.

Structures are written as SMILES. Calls of active or inactive are those of the source. The rule behind the calls is not given here.

Series [1] relates to KB. Description: Cytotoxicity against human KB cells at 50 uM by MTT assay. The series is classed as functional, cell-based. For orientation: Formazan colour is commonly taken as a measure of viable cells.
Series [2] relates to MCF7. Description: Cytotoxicity against human MCF7 cells at 50 uM by MTT assay. The series is classed as functional, cell-based.
Series [3] in a line: Stability of the compound. Type of series: physicochemical.
Series [4] deals with MCF7. Description: Cytotoxicity against human MCF7 cells by MTT assay. The series is classed as functional, cell-based.
In series [5] the test system is KB. Nature of the series: Cytotoxicity against human KB cells by MTT assay. Type of series: functional, cell-based.

With `COC(=O)[C@@]12[C@@]3(C)[C@H]4C=C5C(=CC(=O)OC5(C)C)[C@H](C)[C@@H]3C[C@@]3(C)C(=O)O[C@@H](O[C@@H](C)[C@@]1(O)O4)[C@@]23O`, the result with KB [1] and with MCF7 [2] was inactive.

Turning to `COC(=O)[C@@]12[C@@H]3[C@H]4OC(=O)[C@]3(C)C[C@@H]3[C@]1(C)[C@@H](C=C1C(=CC(=O)OC1(C)C)[C@@]3(C)O)O[C@]2(O)[C@H](C)O4`, the result with KB [1] and in the series on MCF7 [2] was inactive.

Turning to `COC(=O)[C@]12C(=O)[C@H](C)O[C@@H]3OC(=O)[C@](C)(C[C@H]4C(C)=C5CC(=O)OC(C)(C)C5=CC[C@@]41C)[C@@H]32`, the result in the series on KB [1] and with MCF7 [2] was inactive.

Take `COC(=O)[C@]12[C@@H]3[C@H]4OC(=O)[C@]3(C)C[C@H]3[C@@H](C)C5=CC(=O)OC(C)(C)C5=C[C@@H](O[C@]1(O)[C@H](C)O4)[C@@]32C`: the result in the series with KB [1] and in the series on MCF7 [2] was inactive. In the case of `COC(=O)[C@]12[C@@H]3[C@H]4OC(=O)[C@]3(C)CC3=C(C)C5=C(C[C@@H](O[C@]1(O)[C@H](C)O4)[C@@]32C)C(C)(C)OC(=O)C5`, the result in the series with KB [1] and in the series on MCF7 [2] was inactive. On to `COC(=O)[C@@]1(C)O[C@H]2OC(=O)[C@@H]3[C@H]2[C@@](C)(C[C@H]2C(C)=C4CC(=O)OC(C)(C)C4=CC[C@]32C)C1=O`, for which the result in the series on KB [1] and in the series with MCF7 [2] was inactive. Turning to `COC(=O)[C@]12C(=O)[C@H](C)O[C@@H]3OC(=O)[C@](C)(C[C@H]4[C@@H](C)C5=CC(=O)OC(C)(C)C5=C[C@@H](O)[C@@]41C)[C@@H]32`, in series [3], the Stability result was “Unstable”. For the compound `CC(=O)O[C@@]12CO[C@@H]1C[C@H](O)[C@@]1(C)C(=O)[C@H](O)C3=C(C)[C@@H](OC(=O)[C@H](O)[C@@H](NC(=O)OC(C)(C)C)c4ccccc4)C[C@@](O)([C@@H](OC(=O)c4ccccc4)[C@H]21)C3(C)C` [DOCETAXEL ANHYDROUS], the IC50 in the series on MCF7 [4] amounted to 10.3 nM; in the series with KB [5], 38 nM.

On to `COC(=O)O[C@@H]1C=C2C(=CC(=O)OC2(C)C)[C@H](C)[C@@H]2C[C@@]3(C)C(=O)O[C@H]4O[C@@H](C)C(=O)[C@H]([C@H]43)[C@@]12C`, for which the outcome in the series with KB [1] and with MCF7 [2] was inactive. On to `COC(=O)O[C@@H]1C=C2C(=CC(=O)OC2(C)C)[C@H](C)[C@@H]2C[C@@]3(C)C(=O)O[C@H]4O[C@@H](C)C(=O)[C@@H]([C@@]12C)[C@]43O`, for which the outcome with KB [1] and in the series on MCF7 [2] was inactive.

As usually defined, the IC50 is the point on the concentration scale where inhibition reaches its midpoint.
